Laboratory results as given in patent US10405547B2, “Substituted cyclic amides as herbicides” (FMC Corporation, priority 2015, dated 2019).

Experiments:
Format in all cases: in vivo
[1] = test system: ragweed (common ragweed, Ambrosia elatior); test: Test A postemergence, ragweed; conditions: 0 to 100 scale (0 no effect, 100 complete control)
Method in brief: (§1)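 Greenhouse pot test in loam/sand soil. Pre: directed soil spray after seeding. Post: 1–2-leaf plants, 2–10 cm. Formulation: non-phytotoxic solvent + surfactant. Visual rating vs untreated controls at ~10 d, 0 (no effect) to 100 (complete control).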

rice (Oryza sativa) = test: Test B flooded paddy test, rice; conditions: applied to paddy water, visual rating after 13 to 15 days, scale 0 (no effect) to 100 (complete control)
Method in brief: (§2)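 Greenhouse pots flooded to 3 cm above soil at time of treatment received compound via the water, which stayed at that level.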

corn (Zea mays) = test: Test A postemergence, corn; conditions: 0 to 100 scale (0 no effect, 100 complete control)
Method in brief: as §1

[2] = test system: barnyardgrass (Echinochloa crus-galli); test: Test A postemergence, barnyardgrass; conditions: 0 to 100 scale (0 no effect, 100 complete control)
Method in brief: as §1

[3] = test system: ryegrass, Italian (Lolium multiflorum); test: Test A postemergence, Italian ryegrass; conditions: 0 to 100 scale (0 no effect, 100 complete control)
Method in brief: as §1

[4] = test system: galium (catchweed bedstraw, Galium aparine); test: Test A postemergence, galium; conditions: 0 to 100 scale (0 no effect, 100 complete control)
Method in brief: as §1

[5] = test system: ragweed (common ragweed, Ambrosia elatior); test: Test A preemergence, ragweed; conditions: 0 to 100 scale (0 no effect, 100 complete control)
Method in brief: as §1

[6] = test system: pigweed (Amaranthus retroflexus); test: Test A preemergence, pigweed; conditions: 0 to 100 scale (0 no effect, 100 complete control)
Method in brief: as §1

[7] = test system: sedge, umbrella (small-flower umbrella sedge, Cyperus difformis); test: Test B flooded paddy test, umbrella sedge; conditions: applied to paddy water, visual rating after 13 to 15 days, scale 0 (no effect) to 100 (complete control)
Method in brief: as §2

[8] = test system: blackgrass (Alopecurus myosuroides); test: Test A postemergence, blackgrass; conditions: 0 to 100 scale (0 no effect, 100 complete control)
Method in brief: as §1

[9] = test system: foxtail, giant (Setaria faberii); test: Test A postemergence, giant foxtail; conditions: 0 to 100 scale (0 no effect, 100 complete control)
Method in brief: as §1

[10] = test system: pigweed (Amaranthus retroflexus); test: Test A postemergence, pigweed; conditions: 0 to 100 scale (0 no effect, 100 complete control)
Method in brief: as §1

kochia (Kochia scoparia) [11] = test: Test A preemergence, kochia; conditions: 0 to 100 scale (0 no effect, 100 complete control)
Method in brief: as §1

[12] = test system: foxtail, giant (Setaria faberii); test: Test A preemergence, giant foxtail; conditions: 0 to 100 scale (0 no effect, 100 complete control)
Method in brief: as §1

[13] = test system: wheat (Triticum aestivum); test: Test A postemergence, wheat; conditions: 0 to 100 scale (0 no effect, 100 complete control)
Method in brief: as §1

[14] = test system: barnyardgrass (Echinochloa crus-galli); test: Test A preemergence, barnyardgrass; conditions: 0 to 100 scale (0 no effect, 100 complete control)
Method in brief: as §1

[15] = test system: ducksalad (Heteranthera limosa); test: Test B flooded paddy test, ducksalad; conditions: applied to paddy water, visual rating after 13 to 15 days, scale 0 (no effect) to 100 (complete control)
Method in brief: as §2

kochia (Kochia scoparia) [16] = test: Test A postemergence, kochia; conditions: 0 to 100 scale (0 no effect, 100 complete control)
Method in brief: as §1

[17] = test system: barnyardgrass (Echinochloa crus-galli); test: Test B flooded paddy test, barnyardgrass; conditions: applied to paddy water, visual rating after 13 to 15 days, scale 0 (no effect) to 100 (complete control)
Method in brief: as §2

[18] = test system: ryegrass, Italian (Lolium multiflorum); test: Test A preemergence, Italian ryegrass; conditions: 0 to 100 scale (0 no effect, 100 complete control)
Method in brief: as §1

[19] = 125 g ai/ha, visual injury, approximately 10 days
[20] = 500 g ai/ha, visual injury, approximately 10 days

SMILES	Plant response rating, Ragweed [1, 19]	Plant response rating, Ragweed [1, 20]	Plant response rating, Rice (Flood) (rice (Oryza sativa); 250 g ai/ha)	Plant response rating, Corn (corn (Zea mays); [19])	Plant response rating, Corn (corn (Zea mays); [20])	Plant response rating, Barnyardgrass [2, 19]	Plant response rating, Barnyardgrass [2, 20]	Plant response rating, Ryegrass, Italian [3, 19]	Plant response rating, Galium [4, 19]	Plant response rating, Ragweed ([5]; 125 g ai/ha)	Plant response rating, Pigweed ([6]; 125 g ai/ha)	Plant response rating, Blackgrass [8, 19]	Plant response rating, Foxtail, Giant [9, 19]	Plant response rating, Pigweed [10, 19]	Plant response rating, Kochia (kochia (Kochia scoparia) [11]; 125 g ai/ha)	Plant response rating, Foxtail, Giant ([12]; 125 g ai/ha)	Plant response rating, Wheat [13, 19]	Plant response rating, Barnyardgrass ([14]; 125 g ai/ha)	Plant response rating, Kochia (kochia (Kochia scoparia) [16]; [19])	Plant response rating, Ryegrass, Italian ([18]; 125 g ai/ha)	also measured
O=C1NCC(c2cccc(Oc3ncc(F)cn3)c2)C1C(=O)Nc1ccccc1F (single isomer, unassigned) [Compound 39]	0	30	0	30	70	70	100	0	0	0	0	0	70	0	30	90	0	70	0	0	Plant response rating, Ryegrass, Italian [3, 20]: 20; Plant response rating, Galium [4, 20]: 30; Plant response rating, Ragweed ([5]; 500 g ai/ha): 50; Plant response rating, Pigweed ([6]; 500 g ai/ha): 0; Plant response rating, Sedge, Umbrella (Flood) ([7]; 250 g ai/ha): 0; Plant response rating, Blackgrass [8, 20]: 40; Plant response rating, Foxtail, Giant [9, 20]: 80; Plant response rating, Pigweed [10, 20]: 20; Plant response rating, Kochia (kochia (Kochia scoparia) [11]; 500 g ai/ha): 50; Plant response rating, Foxtail, Giant ([12]; 500 g ai/ha): 100; Plant response rating, Wheat [13, 20]: 60; Plant response rating, Barnyardgrass ([14]; 500 g ai/ha): 90; Plant response rating, Ducksalad (Flood) ([15]; 250 g ai/ha): 75; Plant response rating, Kochia (kochia (Kochia scoparia) [16]; [20]): 0; Plant response rating, Barnyardgrass (Flood) ([17]; 250 g ai/ha): 0; Plant response rating, Ryegrass, Italian ([18]; 500 g ai/ha): 60
CN1CC(c2cccc(Oc3ccc(F)cn3)c2)C(C(=O)Nc2cccc(F)c2C#N)C1=O (single isomer, unassigned) [Compound 89]	0		0	0		70		20	40	0	60	20	70	50	0	90	0	70	0	40	Plant response rating, Ragweed ([1]; 31 g ai/ha): 0; Plant response rating, Corn (corn (Zea mays); 31 g ai/ha): 0; Plant response rating, Barnyardgrass ([2]; 31 g ai/ha): 30; Plant response rating, Ryegrass, Italian ([3]; 31 g ai/ha): 0; Plant response rating, Galium ([4]; 31 g ai/ha): 30; Plant response rating, Ragweed ([5]; 31 g ai/ha): 0; Plant response rating, Pigweed ([6]; 31 g ai/ha): 0; Plant response rating, Sedge, Umbrella (Flood) ([7]; 250 g ai/ha): 0; Plant response rating, Blackgrass ([8]; 31 g ai/ha): 0; Plant response rating, Foxtail, Giant ([9]; 31 g ai/ha): 30; Plant response rating, Pigweed ([10]; 31 g ai/ha): 0; Plant response rating, Kochia (kochia (Kochia scoparia) [11]; 31 g ai/ha): 0; Plant response rating, Foxtail, Giant ([12]; 31 g ai/ha): 40; Plant response rating, Wheat ([13]; 31 g ai/ha): 0; Plant response rating, Barnyardgrass ([14]; 31 g ai/ha): 30; Plant response rating, Ducksalad (Flood) ([15]; 250 g ai/ha): 70; Plant response rating, Kochia (kochia (Kochia scoparia) [16]; 31 g ai/ha): 0; Plant response rating, Barnyardgrass (Flood) ([17]; 250 g ai/ha): 0; Plant response rating, Ryegrass, Italian ([18]; 31 g ai/ha): 0
O=C1NCC(c2cccc(Oc3ccc(F)cn3)c2)C1C(=O)Nc1ccccc1F (single isomer, unassigned) [Compound 49]	0	40	0	30	40	80	90	0	20	0	0	0	70	0	20	90	0	90	0	40	Plant response rating, Ryegrass, Italian [3, 20]: 50; Plant response rating, Galium [4, 20]: 70; Plant response rating, Ragweed ([5]; 500 g ai/ha): 40; Plant response rating, Pigweed ([6]; 500 g ai/ha): 20; Plant response rating, Sedge, Umbrella (Flood) ([7]; 250 g ai/ha): 0; Plant response rating, Blackgrass [8, 20]: 40; Plant response rating, Foxtail, Giant [9, 20]: 90; Plant response rating, Pigweed [10, 20]: 20; Plant response rating, Kochia (kochia (Kochia scoparia) [11]; 500 g ai/ha): 70; Plant response rating, Foxtail, Giant ([12]; 500 g ai/ha): 90; Plant response rating, Wheat [13, 20]: 40; Plant response rating, Barnyardgrass ([14]; 500 g ai/ha): 90; Plant response rating, Ducksalad (Flood) ([15]; 250 g ai/ha): 100; Plant response rating, Kochia (kochia (Kochia scoparia) [16]; [20]): 0; Plant response rating, Barnyardgrass (Flood) ([17]; 250 g ai/ha): 0; Plant response rating, Ryegrass, Italian ([18]; 500 g ai/ha): 70
O=C1NCC(c2cccc(OCc3ccccc3)c2)C1C(=O)Nc1ccc(F)c(F)c1F (stereo not drawn) [Compound 66]	0	0		0	0	0	0	0	0	0	0	0	0	0	0	0	0	0	0	0	Plant response rating, Rice (Flood) (rice (Oryza sativa); 500 g ai/ha): 0; Plant response rating, Ryegrass, Italian [3, 20]: 0; Plant response rating, Galium [4, 20]: 0; Plant response rating, Ragweed ([5]; 500 g ai/ha): 0; Plant response rating, Pigweed ([6]; 500 g ai/ha): 0; Plant response rating, Sedge, Umbrella (Flood) ([7]; 500 g ai/ha): 0; Plant response rating, Blackgrass [8, 20]: 0; Plant response rating, Foxtail, Giant [9, 20]: 0; Plant response rating, Pigweed [10, 20]: 0; Plant response rating, Kochia (kochia (Kochia scoparia) [11]; 500 g ai/ha): 0; Plant response rating, Foxtail, Giant ([12]; 500 g ai/ha): 0; Plant response rating, Wheat [13, 20]: 0; Plant response rating, Barnyardgrass ([14]; 500 g ai/ha): 0; Plant response rating, Ducksalad (Flood) ([15]; 500 g ai/ha): 0; Plant response rating, Kochia (kochia (Kochia scoparia) [16]; [20]): 0; Plant response rating, Barnyardgrass (Flood) ([17]; 500 g ai/ha): 0; Plant response rating, Ryegrass, Italian ([18]; 500 g ai/ha): 0
CC1(COc2cccc(C3CNC(=O)C3C(=O)Nc3ccccc3Cl)c2)COC1 (stereo not drawn) [Compound 16]	0	0	0	0	0	0	50	0	0	0	0	0	0	0	0	10	0	0	0	0	Plant response rating, Ryegrass, Italian [3, 20]: 0; Plant response rating, Galium [4, 20]: 0; Plant response rating, Ragweed ([5]; 500 g ai/ha): 0; Plant response rating, Pigweed ([6]; 500 g ai/ha): 0; Plant response rating, Sedge, Umbrella (Flood) ([7]; 250 g ai/ha): 30; Plant response rating, Blackgrass [8, 20]: 0; Plant response rating, Foxtail, Giant [9, 20]: 20; Plant response rating, Pigweed [10, 20]: 0; Plant response rating, Kochia (kochia (Kochia scoparia) [11]; 500 g ai/ha): 0; Plant response rating, Foxtail, Giant ([12]; 500 g ai/ha): 70; Plant response rating, Wheat [13, 20]: 0; Plant response rating, Barnyardgrass ([14]; 500 g ai/ha): 60; Plant response rating, Ducksalad (Flood) ([15]; 250 g ai/ha): 30; Plant response rating, Kochia (kochia (Kochia scoparia) [16]; [20]): 0; Plant response rating, Barnyardgrass (Flood) ([17]; 250 g ai/ha): 0; Plant response rating, Ryegrass, Italian ([18]; 500 g ai/ha): 0
